This passage reports melting point results from US20030185878A1, “Process for producing phospholipid-containing drug” (priority 2002, published 2003).

Molecules are shown by their SMILES.

Regarding `Cn1ncc2c1-c1c(Oc3ccc4c(c3)OCO4)sc(C(N)=O)c1CC2` [Reference Example 4, 4,5-Dihydro-1-methyl-8-(3,4-methylenedioxyphenoxy)-1H-thieno[3,4-g]indazole-6-carboxamide], the melting point (as a rule, the temperature, or range, at which the solid turns liquid) fell in the range of 204 to 205 °C. In the case of `Cn1ncc2c1-c1c(Oc3ccc(OCc4ccccc4)cc3)sc(C(N)=O)c1CC2` [compound 5, 8-(4-Benzyloxyphenoxy)-4,5-dihydro-1-methyl-1H-thieno[3,4-g]indazole-6-carboxamide] it was 200 to 201 °C.

`COc1ccc(Oc2sc(C(N)=O)c3c2-c2c(cnn2C)CC3)cc1` [compound 6, 4,5-Dihydro-1-methyl-8-(4-methoxyphenoxy)-1H-thieno[3,4-g]indazole-6-carboxamide] showed a melting point of 203 to 205 °C. In the case of `Cn1ncc2c1-c1c(Oc3ccc(OC(F)(F)F)cc3)sc(C(N)=O)c1CC2` [compound 7, 4,5-Dihydro-1-methyl-8-(4-trifluoromethoxyphenoxy)-1H-thieno[3,4-g]indazole-6-carboxamide], the melting point was 212 to 213 °C.

On to `Cc1cccc(Oc2sc(C(N)=O)c3c2-c2c(cnn2CC(F)(F)F)CC3)c1C` [compound 9, 4,5-Dihydro-8-(2,3-dimethylphenoxy)-1-(2,2,2-trifluoroethyl)-1H-thieno[3,4-g]indazole-6-carboxamide], for which the melting point was in the range of 190 to 191 °C. Consider `Cn1ncc2c1-c1c(Oc3ccc(OCc4ccncc4)cc3)sc(C(N)=O)c1CC2` [compound 14, 4,5-Dihydro-1-methyl-8-[4-(4-pyridylmethyloxy)phenoxy]-1H-thieno[3,4-g]indazole-6-carboxamide], for which the melting point is 249 to 250 °C. On to `Cn1ncc2c1-c1c(Oc3ccc(F)cc3)sc(C(N)=O)c1CC2` [compound 15, 4,5-Dihydro-1-methyl-8-(4-fluorophenoxy)-1H-thieno[3,4-g]indazole-6-carboxamide], for which the melting point is 188 to 189 °C.
